The results in this text go back to patent US11504364B2, “Inhibitors of fibroblast activation protein” (Praxis Biotech LLC, priority 2018, dated 2022).

Usually IC50 stands for the concentration at which inhibition is half-maximal.

Assay [1] has as its target recombinant human DPPIV (rhDPPIV) (Homo sapiens (Human), UniProt P27487). The experiment in a line: DPPIV enzymatic activity assay. Format: biochemical. The note with it: Table 3B.
The target of assay [2] is recombinant human DPP9 (rhDPP9) (Homo sapiens (Human), UniProt Q86TI2). The assay is described as follows: Inhibition of DPP9 activity, 10 ng rhDPP9, H-Gly-Pro-AMC. The class given is biochemical. To be noted: Table 3B.

A value given as a limit tells only on which side of the number the result lay.

recombinant human DPP9 (rhDPP9), sequence (Q86TI2 whole entry): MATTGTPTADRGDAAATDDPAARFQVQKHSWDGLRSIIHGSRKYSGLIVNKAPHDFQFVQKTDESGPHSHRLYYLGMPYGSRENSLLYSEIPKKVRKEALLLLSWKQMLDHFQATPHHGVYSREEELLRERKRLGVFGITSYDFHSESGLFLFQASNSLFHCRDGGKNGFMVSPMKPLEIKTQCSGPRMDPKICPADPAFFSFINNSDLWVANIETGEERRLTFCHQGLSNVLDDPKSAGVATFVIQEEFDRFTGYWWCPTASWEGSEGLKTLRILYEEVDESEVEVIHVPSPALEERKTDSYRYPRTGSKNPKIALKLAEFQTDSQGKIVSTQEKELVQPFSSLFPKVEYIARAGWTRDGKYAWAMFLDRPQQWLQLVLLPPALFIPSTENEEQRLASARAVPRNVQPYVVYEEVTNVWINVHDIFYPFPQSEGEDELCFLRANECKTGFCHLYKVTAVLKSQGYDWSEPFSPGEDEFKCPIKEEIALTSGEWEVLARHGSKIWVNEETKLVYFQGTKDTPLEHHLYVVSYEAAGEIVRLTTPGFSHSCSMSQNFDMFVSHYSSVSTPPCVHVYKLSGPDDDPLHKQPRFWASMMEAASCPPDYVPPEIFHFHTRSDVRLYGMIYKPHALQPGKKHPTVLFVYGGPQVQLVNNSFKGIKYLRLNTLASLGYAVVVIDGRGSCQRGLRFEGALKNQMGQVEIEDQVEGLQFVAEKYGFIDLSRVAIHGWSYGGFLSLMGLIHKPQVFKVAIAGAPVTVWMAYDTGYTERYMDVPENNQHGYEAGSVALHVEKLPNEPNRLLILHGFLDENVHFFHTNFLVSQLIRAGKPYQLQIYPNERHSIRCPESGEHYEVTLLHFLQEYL
recombinant human DPPIV (rhDPPIV), sequence (P27487 whole entry): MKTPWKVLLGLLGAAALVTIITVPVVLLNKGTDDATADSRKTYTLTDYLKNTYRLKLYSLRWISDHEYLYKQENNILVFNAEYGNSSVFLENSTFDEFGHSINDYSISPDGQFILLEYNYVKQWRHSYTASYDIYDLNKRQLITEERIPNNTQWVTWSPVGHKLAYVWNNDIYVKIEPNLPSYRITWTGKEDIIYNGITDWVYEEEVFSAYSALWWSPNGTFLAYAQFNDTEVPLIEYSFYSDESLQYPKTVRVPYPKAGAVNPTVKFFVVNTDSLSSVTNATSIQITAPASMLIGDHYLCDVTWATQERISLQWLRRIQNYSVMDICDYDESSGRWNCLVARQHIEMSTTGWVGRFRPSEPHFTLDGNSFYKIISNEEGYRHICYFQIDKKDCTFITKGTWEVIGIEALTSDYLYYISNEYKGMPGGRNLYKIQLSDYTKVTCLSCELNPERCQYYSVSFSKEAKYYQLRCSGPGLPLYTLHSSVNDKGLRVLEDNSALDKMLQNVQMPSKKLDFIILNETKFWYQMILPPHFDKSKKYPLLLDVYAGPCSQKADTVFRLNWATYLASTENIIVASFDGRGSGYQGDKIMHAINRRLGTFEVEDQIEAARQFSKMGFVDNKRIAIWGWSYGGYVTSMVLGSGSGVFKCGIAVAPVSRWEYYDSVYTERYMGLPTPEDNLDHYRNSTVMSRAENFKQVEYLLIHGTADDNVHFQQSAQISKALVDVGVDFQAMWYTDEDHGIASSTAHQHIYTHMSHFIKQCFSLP

Take `N#C[C@@H]1CC(F)(F)CN1C(=O)CNC(=O)c1ccnc2ccc(-c3cnn(C4CC4)c3)cc12` [Compound 11, (S)—N-(2-(2-cyano-4,4-difluoropyrrolidin-1-yl)-2-oxoethyl)-6-(1-cyclopropyl-1H-pyrazol-4-yl)quinoline-4-carboxamide]: the figures for the IC50 in assay [1] and in assay [2] were 1000 to 10000 nM and < 1000 nM, respectively.

Turning to `CC(C)(C)c1ccc(-c2ccc3nccc(C(=O)NCC(=O)N4CC(F)(F)C[C@H]4C#N)c3c2)cc1` [Compound 7, (S)-6-(4-(tert-butyl)phenyl)-N-(2-(2-cyano-4,4-difluoropyrrolidin-1-yl)-2-oxoethyl)quinoline-4-carboxamide], the IC50 was > 10000 nM in assay [1] and < 1000 nM in assay [2].

As to `COCCOc1ccc(-c2ccc3nccc(C(=O)NCC(=O)N4CC(F)(F)C[C@H]4C#N)c3c2)cn1` [Compound 36], the IC50 in assay [1] was > 10000 nM; in assay [2], < 1000 nM.

On to `Cn1cc(-c2ccc3nccc(C(=O)NCC(=O)N4CC(F)(F)C[C@H]4C#N)c3c2)cn1` [Compound 10, (S)—N-(2-(2-cyano-4,4-difluoropyrrolidin-1-yl)-2-oxoethyl)-6-(1-methyl-1H-pyrazol-4-yl)quinoline-4-carboxamide], for which the concentration for half-maximal inhibition (IC50) in assay [1] was > 10000 nM; in assay [2], < 1000 nM.

On to `CC(=O)Nc1ccc(-c2ccc3nccc(C(=O)NCC(=O)N4CC(F)(F)C[C@H]4C#N)c3c2)cc1` [Compound 97], for which the IC50 is > 10000 nM in assay [1] and < 1000 nM in assay [2].

For `N#C[C@@H]1CC(F)(F)CN1C(=O)CNC(=O)c1ccnc2ccc(/C=C/c3ccccc3)cc12` [Compound 14, (S,E)-N-(2-(2-cyano-4,4-difluoropyrrolidin-1-yl)-2-oxoethyl)-6-styrylquinoline-4-carboxamide], the IC50 in assay [1] was > 10000 nM; in assay [2], < 1000 nM.

Regarding `CNC(=O)c1ccc(-c2ccc3nccc(C(=O)NCC(=O)N4CC(F)(F)C[C@H]4C#N)c3c2)cc1F` [Compound 116], the IC50 in assay [1] was > 10000 nM; in assay [2] it was < 1000 nM.

Regarding `N#C[C@@H]1CC(F)(F)CN1C(=O)CNC(=O)c1ccnc2ccc(-c3ccc(OC(F)(F)F)cc3)cc12` [Compound 31], the values for the IC50 in assay [1] and in assay [2] were > 10000 nM and < 1000 nM, respectively.

Take `N#C[C@@H]1CC(F)(F)CN1C(=O)CNC(=O)c1ccnc2ccc(-c3ccncc3)cc12` [Compound 6, (S)—N-(2-(2-cyano-4,4-difluoropyrrolidin-1-yl)-2-oxoethyl)-6-(pyridin-4-yl)quinoline-4-carboxamide]: the IC50 is > 10000 nM in assay [1] and < 1000 nM in assay [2].

For `N#C[C@@H]1CC(F)(F)CN1C(=O)CNC(=O)c1ccnc2ccc(-c3cccc4c3CCC(=O)N4)cc12` [Compound 108], the IC50 is > 10000 nM in assay [1] and < 1000 nM in assay [2].

With `N#C[C@@H]1CC(F)(F)CN1C(=O)CNC(=O)c1ccnc2ccc(-c3ccc4c(c3)CCNC4=O)cc12` [Compound 18, (S)—N-(2-(2-cyano-4,4-difluoropyrrolidin-1-yl)-2-oxoethyl)-6-(1-oxo-1,2,3,4-tetrahydroisoquinolin-6-yl)quinoline-4-carboxamide], the IC50 in assay [1] and in assay [2] was < 1000 nM throughout.

Consider `Cn1ccc2cc(-c3ccc4nccc(C(=O)NCC(=O)N5CC(F)(F)C[C@H]5C#N)c4c3)ccc21` [Compound 8, (S)—N-(2-(2-cyano-4,4-difluoropyrrolidin-1-yl)-2-oxoethyl)-6-(1-methyl-1H-indol-5-yl)quinoline-4-carboxamide], for which the figures for the IC50 in assay [1] and in assay [2] were 1000 to 10000 nM and < 1000 nM, respectively.

Take `N#C[C@@H]1CC(F)(F)CN1C(=O)CNC(=O)c1ccnc2ccc(-c3ccc4[nH]ccc4c3)cc12` [Compound 9, (S)—N-(2-(2-cyano-4,4-difluoropyrrolidin-1-yl)-2-oxoethyl)-6-(1H-indol-5-yl)quinoline-4-carboxamide]: the IC50 in assay [1] is > 10000 nM; in assay [2] it was < 1000 nM.
